Patent publication US20220033431A1, “Cyclic Di-Nucleotide Compounds as STING Agonists” (Merck Sharp & Dohme Corp., priority 2018, published 2022)
Where two headings read alike, the source gives them in different places.

Experiments:
THP1 cells = experiment: IFN-β secretion in THP1 cell culture (5 h); type: cell-based, human; details: 30 uM cGAMP = 100%; for activation at 30 µM: Homo sapiens, THP-1, 5 h
Procedure: The ability of compounds to stimulate the secretion of interferon-beta from THP1 cells was measured using a human IFN-β AlphaLISA kit (Perkin Elmer, Cat. No. AL265F). The basic protocol is as follows:
A Labcyte Echo 550 acoustic dispenser was used to transfer 120 nL of compound dissolved in DMSO into the wells of an empty, sterile 384-well microplate, (Corning, Cat. No. 3712). THP1 cells (American Type Culture Collection, Cat. No. TIB202) previously frozen in Recovery Medium (Life Technologies, Cat. No. 12648-010) were thawed and immediately diluted 10-fold into 37° C. assay medium (RPMI 1640+L-Glutamine & phenol red, Life Technologies, Cat. No. 11875-085; 0.5% heat inactivated fetal bovine serum, Sigma Aldrich, Cat. No. F4135; 1 mM Sodium Pyruvate, Life Technologies, Cat. No. 11360-070; lx non essential amino acids; Life Technologies, Cat. No. 11140-050). The cell viability and count was ascertained using a Beckman Coulter V-Cell XR cell counter. The cell suspension was centrifuged at 200×g for 5 min at RT. Cells were resuspended to a density of 0.8×10^6/mL in 37° C. assay medium. Subsequent liquid transfers were performed using either a Matrix electronic multichannel pipette or an Agilent Bravo Automated Liquid Handling Platform.
The assay was started by dispensing 40 μL of the previously prepared cell suspension into the wells of the plate containing compounds. After 5 h incubation at 37° C., 5% CO2 in a humidified atmosphere, the plate of cells and compounds was centrifuged at 200×g for 5 min at RT. From each well, […] of supernatant was transferred into corresponding wells of a white 384-well plate (Perkin Elmer, Cat. No. 6005620). To these supernatant-containing wells was added 10 μL of 5× Anti-Analyte Acceptor beads (50 μg/mL of AlphaLISA HiBlock Buffer) and incubated for 30 min at RT while shaking on an orbital plate shaker. To each well was added 10 μL of 5× Biotinylated Antibody Anti-analyte (5 nM in AlphaLISA HiBlock Buffer) and incubated on an orbital plate shaker for 60 min at RT or overnight at 4° C. To each well was added 25 μL of 2× SA-Donor beads ([…] in AlphaLISA HiBlock Buffer) and incubated for 30-45 min at RT in the dark while shaking on an orbital plate shaker. The plate was then read on a Perkin Elmer Envision (λex=680 nm, λem=[…]). The percent effect of the AlphaLISA signal at each compound concentration was calculated based on 30 uM cGAMP positive controls and 0.3% DMSO negative controls. The plot of percent effect versus the log of compound concentration was fit with a 4-parameter concentration response equation to calculate EC50 values. The test compounds were tested at concentrations 30000, 10000, 3333, 1111, 370.4, 123.4, 41.2, 13.7, 4.6, and 1.5 nM with 0.3% residual DMSO. The control compound, cGAMP was tested at concentrations 100000, 33333, 11111, 3704, 1235, 412, 137, 46, and 15 nM with 0.3% residual DMSO.
Compounds of the disclosure were evaluated for IFN-β secretion in THP1 cell culture as described above. The following table tabulates the biological data for these compounds as percent activation relative to 2′3′-cGAMP at the 30 μM concentration.

full-length HAQ STING = target: T1, full-length HAQ STING (Homo sapiens, UniProt Q86WV6, G230A/H232R/R293Q/R71H); experiment: 3H-cGAMP filtration binding assay (HAQ STING); details: 3H-cGAMP filtration binding assay for HAQ STING; competition with tritiated cGAMP
T1 construct: Full-Length HAQ STING [STING(1-379)R71H, G230A, H232R,; made in house; host or cells: Trichoplusia ni insect cells (baculovirus made in Sf21); membrane preparation
T1 sequence (Q86WV6 with tags, fused parts or gaps R71H/G230A/H232R/R293Q): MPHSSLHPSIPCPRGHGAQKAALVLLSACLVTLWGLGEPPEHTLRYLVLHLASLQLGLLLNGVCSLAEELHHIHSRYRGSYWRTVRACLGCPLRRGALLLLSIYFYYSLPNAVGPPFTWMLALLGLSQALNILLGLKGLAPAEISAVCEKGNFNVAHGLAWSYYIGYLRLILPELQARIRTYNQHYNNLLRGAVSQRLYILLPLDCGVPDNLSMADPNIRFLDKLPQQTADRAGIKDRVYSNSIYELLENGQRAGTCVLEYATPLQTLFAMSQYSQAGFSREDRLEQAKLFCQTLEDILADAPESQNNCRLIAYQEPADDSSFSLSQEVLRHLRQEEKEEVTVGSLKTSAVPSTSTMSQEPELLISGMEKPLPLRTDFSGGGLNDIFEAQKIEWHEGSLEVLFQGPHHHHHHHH
From the text: The ability of compounds to bind STING is quantified by their ability to compete with tritiated cGAMP ligand for human STING receptor membrane using a radioactive filter-binding assay. The binding assay employs STING receptor obtained from Trichoplusia ni cell membranes (T.ni; Expression Systems, cat #94-002F, www.expressionsystems.com) overexpressing full-length HAQ STING and tritiated cGAMP ligand.
The basic HAQ STING filtration assay protocol is as follows:
Compound and membrane then preincubated for 60 min at RT to allow compound binding to equilibrate. Following equilibration, 8 nM of [^3H]c-GAMP ligand was prepared by diluting into assay buffer, and 50 uL of this working stock was then manually added to each well of the assay plate. […] The filter plates were then dried at 55° C. for 30 min using a pressurized oven before 30 uL of ULTIMA GOLD F scintillate was added to each well. Tritium levels for each reaction well were then measured using a PerkinElmer TopCount plate reader.
After normalization to controls, the percent activity for each compound concentration was calculated by measuring the amount of remaining radioactivity. The plot of percent activity versus the log of compound concentration was fit with a 4-parameter dose response equation to calculate EC50 values.

[1] = IFN-β secretion, THP1 cells, 5 h, 30 μM
[2] = IFN-β secretion, THP1 cells, 5 h, 30 μM, read-out: % Effect at 30 μM relative to 2′3′-cGAMP

Nc1nc2c(ncn2[C@@H]2O[C@@H]3COP(=O)(S)O[C@H]4[C@H](F)[C@H](n5nnc6c(N)ncnc65)O[C@@H]4COP(=O)(S)O[C@H]2[C@@H]3O)c(=O)[nH]1 (single isomer, unassigned) [Example 1]
% Effect at 30 μM relative to 2′3′-cGAMP (THP1 cells; [1]): 24% | EC50 (full-length HAQ STING): 1140 nM

Nc1nc2c(ncn2[C@@H]2O[C@@H]3COP(=O)(S)O[C@H]4[C@H](F)[C@H](n5nnc6c(N)ncnc65)O[C@@H]4COP(=O)(S)O[C@H]2[C@@H]3O)c(=O)[nH]1 (single isomer, unassigned) [Example 2]
% Effect at 30 μM relative to 2′3′-cGAMP (THP1 cells; [1]): 29% | EC50 (full-length HAQ STING): 1130 nM

Nc1nc2c(ncn2[C@@H]2O[C@@H]3COP(=O)(S)O[C@H]4[C@H](F)[C@H](n5nnc6c(N)ncnc65)O[C@@H]4COP(=O)(S)O[C@H]2[C@@H]3O)c(=O)[nH]1 (single isomer, unassigned) [Example 3]
% Effect at 30 μM relative to 2′3′-cGAMP (THP1 cells; [1]): 128% | EC50 (full-length HAQ STING): 51.3 nM

Nc1nc2c(ncn2[C@@H]2O[C@@H]3COP(=O)(S)O[C@H]4[C@H]5OC[C@]4(COP(=O)(S)O[C@H]2[C@@H]3O)O[C@H]5n2cnc3c(N)ncnc32)c(=O)[nH]1 (single isomer, unassigned) [Example 4]
% Effect at 30 μM relative to 2′3′-cGAMP (THP1 cells; [1]): 113%

Nc1nc2c(ncn2[C@@H]2O[C@@H]3COP(=O)(S)O[C@H]4[C@H]5OC[C@]4(COP(=O)(S)O[C@H]2[C@@H]3O)O[C@H]5n2cnc3c(N)ncnc32)c(=O)[nH]1 (single isomer, unassigned) [Example 5]
activation at 30 µM (THP1 cells; [2]): 113%

Nc1nc2c(ncn2[C@@H]2O[C@@H]3COP(=O)(S)O[C@H]4[C@H](F)[C@H](n5nnc6c(N)ncnc65)O[C@@H]4COP(=O)(S)O[C@H]2C3)c(=O)[nH]1 (single isomer, unassigned) [Example 6]
% Effect at 30 μM relative to 2′3′-cGAMP (THP1 cells; [1]): 60% | EC50 (full-length HAQ STING): 241 nM

Nc1nc2c(ncn2[C@@H]2O[C@@H]3COP(=O)(S)O[C@H]4[C@H](F)[C@H](n5nnc6c(N)ncnc65)O[C@@H]4COP(=O)(S)O[C@H]2C3)c(=O)[nH]1 (single isomer, unassigned) [Example 7]
% Effect at 30 μM relative to 2′3′-cGAMP (THP1 cells; [1]): 15% | EC50 (full-length HAQ STING): 3670 nM

Nc1nc2c(ncn2[C@@H]2O[C@@H]3COP(=O)(S)O[C@H]4[C@H](F)[C@H](n5nnc6c(N)ncnc65)O[C@@H]4COP(=O)(S)O[C@H]2C3)c(=O)[nH]1 (single isomer, unassigned) [Example 8]
% Effect at 30 μM relative to 2′3′-cGAMP (THP1 cells; [1]): 145% | EC50 (full-length HAQ STING): 26 nM

Nc1nc2c(ncn2[C@@H]2O[C@@H]3COP(=O)(O)O[C@H]4[C@H](F)[C@H](n5cnc6c(N)ncnc65)O[C@@H]4COP(=O)(S)O[C@H]2[C@@H]3F)c(=O)[nH]1 (single isomer, unassigned) [Example 13]
% Effect at 30 μM relative to 2′3′-cGAMP (THP1 cells; [1]): 79%

Nc1nc2c(ncn2[C@@H]2O[C@@H]3COP(=O)(O)O[C@H]4[C@H](F)[C@H](n5cnc6c(N)ncnc65)O[C@@H]4COP(=O)(S)O[C@H]2[C@@H]3F)c(=O)[nH]1 (single isomer, unassigned) [Example 14]
% Effect at 30 μM relative to 2′3′-cGAMP (THP1 cells; [1]): 257%

Nc1nc2c(ncn2[C@@H]2O[C@@H]3COP(=O)(S)O[C@H]4[C@H](F)[C@H](n5cnc6c(N)ncnc65)O[C@@H]4COP(=O)(S)O[C@H]2[C@@H]3F)c(=O)[nH]1 (single isomer, unassigned) [Example 15]
% Effect at 30 μM relative to 2′3′-cGAMP (THP1 cells; [1]): 31%

Nc1nc2c(ncn2[C@@H]2O[C@@H]3COP(=O)(S)O[C@H]4[C@H](F)[C@H](n5cnc6c(N)ncnc65)O[C@@H]4COP(=O)(S)O[C@H]2[C@@H]3F)c(=O)[nH]1 (single isomer, unassigned) [Example 16]
% Effect at 30 μM relative to 2′3′-cGAMP (THP1 cells; [1]): 188%

Nc1nc2c(ncn2[C@@H]2O[C@@H]3COP(=O)(S)O[C@H]4[C@H](F)[C@H](n5cnc6c(N)ncnc65)O[C@@H]4COP(=O)(S)O[C@H]2[C@@H]3F)c(=O)[nH]1 (single isomer, unassigned) [Example 17]
% Effect at 30 μM relative to 2′3′-cGAMP (THP1 cells; [1]): 141%

Nc1nc2c(nnn2[C@@H]2O[C@@H]3COP(=O)(S)O[C@H]4C[C@H](n5ccc6c(N)ncnc65)O[C@@H]4COP(=O)(S)O[C@H]2C3)c(=O)[nH]1 (single isomer, unassigned) [Example 22]
activation at 30 µM (THP1 cells; [2]): 69%

Nc1nc2c(nnn2[C@@H]2O[C@@H]3COP(=O)(S)O[C@H]4C[C@H](n5ccc6c(N)ncnc65)O[C@@H]4COP(=O)(S)O[C@H]2[C@@H]3F)c(=O)[nH]1 (single isomer, unassigned) [Example 25]
activation at 30 µM (THP1 cells; [2]): 92% | EC50 (full-length HAQ STING): 99.9 nM

Nc1nc2c(nnn2[C@@H]2O[C@@H]3COP(=O)(S)O[C@H]4C[C@H](n5ccc6c(N)ncnc65)O[C@@H]4COP(=O)(S)O[C@H]2[C@@H]3F)c(=O)[nH]1 (single isomer, unassigned) [Example 26]
% Effect at 30 μM relative to 2′3′-cGAMP (THP1 cells; [1]): 79% | EC50 (full-length HAQ STING): 5.62 nM

Nc1nc2c(nnn2[C@@H]2O[C@@H]3COP(=O)(S)O[C@H]4[C@H](F)[C@H](n5nnc6c(N)ncnc65)O[C@@H]4COP(=O)(S)O[C@H]2[C@@H]3F)c(=O)[nH]1 (stereo partly drawn) [Example 24, 5-amino-3-[(5R,7R,8R,12aR,14R,15S,15aR,16R)-14-(7-amino-3H-[1,2,3]triazolo[4,5-d]pyrimidin-3-yl)-15,16-difluoro-2,10-dioxido-2,10-disulfanyloctahydro-12H-5,8-methanofuro[3,2-1][1,3,6,9,11,2,10]pentaoxadiphosphacyclotetradecin-7-yl]-3,6-dihydro-7H-[1,2,3]triazolo[4,5-d]pyrimidin-7-one]
activation at 30 µM (THP1 cells; read-out: % Effect at 30 μM relative to 2′3′-cGAMP, IFN-β secretion, THP1 cells, 5 h, 30 μM): 129%
